Data: publication PMC5444726, “A CD44-specific peptide, RP-1, exhibits capacities of assisting diagnosis and predicting prognosis of gastric cancer” (Oncotarget, 2017)

Tested on: CD44 in gastric carcinoma and surrounding tissues
Assay: Immunohistochemistry of human gastric cancer tissue microarray
Conditions: for RP-1 staining negative, number (%) / RP-1 staining positive, number (%): % of all 100 cases
Description: Prepared paraffin-embedded sections were deparaffinized, rehydrated, retrieved and blocked with 5% BSA (w/v) in PBS at ambient temperature for 30 min. Then, sections were incubated with 100 μM biotin labeled RP-1 peptide or human specific rabbit anti-CD44 monoclonal antibody (1:200, ZSGB-BIO, Beijing, China) overnight at 4°C. After PBS washing for three times, sections were subsequently incubated with streptavidin-HRP (1:500, Proteintech, Wuhan, China) and goat anti-rabbit secondary antibody (1:300, BOSTER, Wuhan, China). Diaminobenzidine (DAB, ZSGB-BIO, Beijing, China) was used as a chromogen. Finally, the sections were counterstained with hematoxylin and mounted with neutral balsam.
Two TMA slides (Shanghai Outdo Biotech Co LTD, Shanghai, China), each containing 100 GC tissues samples (including 66 adenocarcinoma, 19 tubular adenocarcinoma, 8 mucinous adenocarcinoma, 2 undifferentiated carcinoma and 5 signet-ring cell carcinoma tissue samples) and 80 surrounding tissue samples from 100 patients, were used to evaluate the diagnostic and prognostic effects of RP-1. Samples were obtained from treatment-naive patients with written informed consent signed and dated. Age of the 100 patients with GC ranged from 32 to 81 years (mean, 64.4 years). Their clinicopathological characteristics were described in Table 2. The TNM stage of all patients with GC was assessed according to the American Joint Commission for Cancer (AJCC 7th edition) and tumors were histologically classified according to the criteria described by the World Health Organization (2000). The Medical Ethics Committee of Taizhou Hospital of Zhejiang province reviewed and approved all studies.
We performed immunohistochemical staining of TMA slides with RP-1 and human specific anti-CD44 monoclonal antibody by following the procedure described in the section Immunohistochemistry. The immunoreactivity was assessed with the immunohistochemistry score (HSCORE) system, which evaluated the staining intensity and percentages of positive cells stained at a specific magnitude of intensity. The HSCORE was calculated using the equation HSCORE=∑Pi(i) (i = 0, 1, 2, 3, Pi = 0–100%), in which i was the staining intensity (0, no staining; 1, weak staining; 2, moderate staining; 3, strong staining) and Pi was the percentage of positive cells on a scale of 0% to 100%. Positive cell count was assessed in 5 randomly selected fields of vision with a microscope (400×). All immunohistochemical evaluations were conducted by two independent pathologists […].
Receiver–operator curve (ROC) analysis was performed to determine the cut-off score for both RP-1 peptide and anti-CD44 monoclonal antibody. The score closest to the point (0.0, 1.0) with maximum sensitivity and specificity was identified as the cut-off score. Samples with a HSCORE of cut-off value or below were considered as negative staining, otherwise they were considered as positive staining.
Statistical analysis was conducted with SPSS software, version 21.0 (IBM, New York, USA). Kappa values were used to determine the consistency of histological and immunohistochemical results between RP-1 peptide and anti-CD44 antibody. Independent sample t-test was performed to decide existence of statistical difference in fluorescent intensity values between tumor and other normal organs. The ROC analysis was carried out to decide the cut-off value for RP-1 and anti-CD44 antibody. The area under the curve (AUC) was calculated to compare the diagnostic accuracy of RP-1 and anti-CD44 antibody. χ^2-test was used to assess the association between each clinicopathological variable and RP-1 staining intensity, while log-rank test was used for assessing the association between survival and each clinicopathological variable. Multiple Cox proportional hazards regression was performed to verify if RP-1 positivity can be used as an independent risk factor for prognosis of GC. […]

[1] = adenocarcinoma, 66 cases, P = 0.182
[2] = age > 64.4, 46 cases, P = 0.036
[3] = age ≤ 64.4, 54 cases, P = 0.036
[4] = all antibody results, total 100
[5] = clinicopathological stage I, 10 cases, P = 0.526
[6] = clinicopathological stage II, 32 cases, P = 0.526
[7] = clinicopathological stage III, 50 cases, P = 0.526
[8] = clinicopathological stage IV, 8 cases, P = 0.526
[9] = moderately differentiated, 69 cases, P = 0.066
[10] = mucinous adenocarcinoma, 8 cases, P = 0.182
[11] = poorly differentiated, 5 cases, P = 0.066
[12] = signet ring cell carcinoma, 4 cases, P = 0.182
[13] = tubular adenocarcinoma, 19 cases, P = 0.182
[14] = undifferentiated carcinoma, 3 cases, P = 0.182
[15] = well differentiated, 26 cases, P = 0.066

WHPWSYLWTQQA [RP-1, CD44-specific peptide … screened from a 12-mer phage peptide library]
RP-1 staining negative, number (%) [1]: 16 (16.0) | RP-1 staining positive, number (%) [1]: 50 (50.0) | RP-1 staining negative, number (%) [2]: 12 (12.0) | RP-1 staining positive, number (%) [2]: 34 (34.0) | RP-1 staining negative, number (%) [3]: 15 (15.0) | RP-1 staining positive, number (%) [3]: 39 (39.0) | number of pericarcinomatous tissues RP-1 negative (all antibody results, total 80): 70 | number of pericarcinomatous tissues RP-1 positive (all antibody results, total 80): 10 | number of gastric carcinoma tissues RP-1 negative [4]: 27 | number of gastric carcinoma tissues RP-1 positive [4]: 73 | number of gastric carcinoma tissues RP-1 negative (antibody negative): 18 | number of gastric carcinoma tissues RP-1 positive (antibody negative): 18 | number of pericarcinomatous tissues RP-1 negative (antibody negative): 56 | number of pericarcinomatous tissues RP-1 positive (antibody negative): 9 | number of gastric carcinoma tissues RP-1 negative (antibody positive): 9 | number of gastric carcinoma tissues RP-1 positive (antibody positive): 55 | number of pericarcinomatous tissues RP-1 negative (antibody positive): 14 | number of pericarcinomatous tissues RP-1 positive (antibody positive): 1 | RP-1 staining negative, number (%) [5]: 4 (4.0) | RP-1 staining positive, number (%) [5]: 6 (6.0) | RP-1 staining negative, number (%) [6]: 10 (10.0) | RP-1 staining positive, number (%) [6]: 22 (22.0) | RP-1 staining negative, number (%) [7]: 12 (12.0) | RP-1 staining positive, number (%) [7]: 38 (38.0) | RP-1 staining negative, number (%) [8]: 1 (1.0) | RP-1 staining positive, number (%) [8]: 7 (7.0) | RP-1 staining negative, number (%) (died, 69 cases, P < 0.001): 11 (11.0) | RP-1 staining positive, number (%) (died, 69 cases, P < 0.001): 58 (58.0) | RP-1 staining negative, number (%) (female, 36 cases, P = 0.895): 10 (10.0) | RP-1 staining positive, number (%) (female, 36 cases, P = 0.895): 26 (26.0) | RP-1 staining negative, number (%) (male, 64 cases, P = 0.895): 17 (17.0) | RP-1 staining positive, number (%) (male, 64 cases, P = 0.895): 47 (47.0) | RP-1 staining negative, number (%) [9]: 21 (21.0) | RP-1 staining positive, number (%) [9]: 53 (53.0) | RP-1 staining negative, number (%) [10]: 5 (5.0) | RP-1 staining positive, number (%) [10]: 3 (3.0) | RP-1 staining negative, number (%) (pM0, 91 cases, P = 0.260): 26 (26.0) | RP-1 staining positive, number (%) (pM0, 91 cases, P = 0.260): 65 (65.0) | RP-1 staining negative, number (%) (pM1, 9 cases, P = 0.260): 1 (1.0) | RP-1 staining positive, number (%) (pM1, 9 cases, P = 0.260): 8 (8.0) | RP-1 staining negative, number (%) (pN0, 27 cases, P = 0.101): 6 (6.0) | RP-1 staining positive, number (%) (pN0, 27 cases, P = 0.101): 21 (21.0) | RP-1 staining negative, number (%) (pN1, 15 cases, P = 0.101): 8 (8.0) | RP-1 staining positive, number (%) (pN1, 15 cases, P = 0.101): 7 (7.0) | RP-1 staining negative, number (%) (pN2, 28 cases, P = 0.101): 6 (6.0) | RP-1 staining positive, number (%) (pN2, 28 cases, P = 0.101): 22 (22.0) | RP-1 staining negative, number (%) (pN3, 30 cases, P = 0.101): 7 (7.0) | RP-1 staining positive, number (%) (pN3, 30 cases, P = 0.101): 23 (23.0) | RP-1 staining negative, number (%) (pT1, 8 cases, P = 0.399): 3 (3.0) | RP-1 staining positive, number (%) (pT1, 8 cases, P = 0.399): 5 (5.0) | RP-1 staining negative, number (%) (pT2, 9 cases, P = 0.399): 1 (1.0) | RP-1 staining positive, number (%) (pT2, 9 cases, P = 0.399): 6 (6.0) | RP-1 staining negative, number (%) (pT3, 66 cases, P = 0.399): 20 (20.0) | RP-1 staining positive, number (%) (pT3, 66 cases, P = 0.399): 45 (45.0) | RP-1 staining negative, number (%) (pT4, 17 cases, P = 0.399): 3 (3.0) | RP-1 staining positive, number (%) (pT4, 17 cases, P = 0.399): 17 (17.0) | RP-1 staining negative, number (%) [11]: 0 (0.0) | RP-1 staining positive, number (%) [11]: 11 (11.0) | RP-1 staining negative, number (%) [12]: 1 (1.0) | RP-1 staining positive, number (%) [12]: 4 (4.0) | RP-1 staining negative, number (%) (survived, 31 cases, P < 0.001): 16 (16.0) | RP-1 staining positive, number (%) (survived, 31 cases, P < 0.001): 15 (15.0) | HSCORE of GC samples versus surrounding tissue (t-test, P < 0.001): significantly higher | cell types stained positive (tissue microarray, gastric carcinoma and surrounding tissue): positive only in tumor cells | RP-1 staining negative, number (%) [13]: 5 (5.0) | RP-1 staining positive, number (%) [13]: 14 (14.0) | RP-1 staining negative, number (%) [14]: 0 (0.0) | RP-1 staining positive, number (%) [14]: 2 (2.0) | RP-1 staining negative, number (%) [15]: 6 (6.0) | RP-1 staining positive, number (%) [15]: 9 (9.0)
